This note sets out measurements from BindingDB's records for doi:10.1021/jm981129a (Julius-Maximilians University Würzburg, 1999).

The target of the test is Nitric oxide synthase, brain (Sus scrofa). In words: Inhibitory activity against Nitric oxide synthase (derived from porcine brain cerebellum).

On to `Nc1nc(N)c2nc(COc3ccccc3)cnc2n1` [6-Phenoxymethyl-pteridine-2,4-diamine], for which inhibition was half-maximal at 180 µM (IC50).
